This note sets out measurements from PubChem BioAssay AID330 (DTP/NCI, 2004).

Several values for one entry are separate records, joined by “and”; a condition that tells them apart may be missing. Equal entries are not always repeated. Inconclusive results and toxic doses are left out. Peptide text beside a SMILES is read from it. * marks the point of attachment. Trt = c1ccc(C(c2ccccc2)(c2ccccc2)*)cc1; Cbz = O=C(OCc1ccccc1)*; Bn = c1ccc(C*)cc1; βAla = NCCC(=O)O

This test deals with P388 leukemia ip, CD2F1 mice, survival T/C. Put plainly: NCI In Vivo Anticancer Drug Screen. Data for tumor model P388 Leukemia (intraperitoneal) in CD2F1 (CDF1) mice. The note with it: endpoint: median survival time, higher = longer survival. The method in brief:
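Mice carrying the transplanted tumor received test compound or vehicle. Survival was recorded in each group, and the value is the treated-group measurement divided by that of the vehicle-treated control group.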

The mark [1] stands for this setting: dose: 50.0 mg/kg/injection, schedule: Q01DX005 (ip), vehicle: saline with Tween-80.
[2] abbreviates: dose: 100.0 mg/kg/injection, schedule: Q01DX005 (ip), vehicle: saline with Tween-80.
Setting [3] is: dose: 200.0 mg/kg/injection, schedule: Q01DX005 (ip), vehicle: saline with Tween-80.
Setting [4] is: dose: 12.5 mg/kg/injection, schedule: Q01DX005 (ip), vehicle: Klucel (hydroxypropylcellulose) (HPC).
Where [5] appears, read: dose: 25.0 mg/kg/injection, schedule: Q01DX005 (ip), vehicle: Klucel (hydroxypropylcellulose) (HPC).
Setting [6] is: dose: 50.0 mg/kg/injection, schedule: Q01DX005 (ip), vehicle: Klucel (hydroxypropylcellulose) (HPC).
[7] abbreviates: dose: 100.0 mg/kg/injection, schedule: Q01DX005 (ip), vehicle: Klucel (hydroxypropylcellulose) (HPC).
[8] abbreviates: dose: 200.0 mg/kg/injection, schedule: Q01DX005 (ip), vehicle: Klucel (hydroxypropylcellulose) (HPC).
[9] abbreviates: dose: 60.0 mg/kg/injection, schedule: Q01DX005 (ip), vehicle: saline with Tween-80.
[10] abbreviates: dose: 120.0 mg/kg/injection, schedule: Q01DX005 (ip), vehicle: saline with Tween-80.
Where [11] appears, read: dose: 240.0 mg/kg/injection, schedule: Q01DX005 (ip), vehicle: saline with Tween-80.
[12] abbreviates: dose: 25.0 mg/kg/injection, schedule: Q01DX005 (ip), vehicle: saline with Tween-80.
The mark [13] stands for this setting: dose: 6.25 mg/kg/injection, schedule: Q01DX005 (ip), vehicle: Klucel (hydroxypropylcellulose) (HPC).
The mark [14] stands for this setting: dose: 50.0 mg/kg/injection, schedule: Q01DX009 (ip), vehicle: saline.
[15] abbreviates: dose: 100.0 mg/kg/injection, schedule: Q01DX009 (ip), vehicle: saline.
Where [16] appears, read: dose: 200.0 mg/kg/injection, schedule: Q01DX009 (ip), vehicle: saline.
[17] abbreviates: dose: 50.0 mg/kg/injection, schedule: Q01DX009 (ip), vehicle: saline with Tween-80.
[18] abbreviates: dose: 100.0 mg/kg/injection, schedule: Q01DX009 (ip), vehicle: saline with Tween-80.
The mark [19] stands for this setting: dose: 200.0 mg/kg/injection, schedule: Q01DX009 (ip), vehicle: saline with Tween-80.
Setting [20] is: dose: 25.0 mg/kg/injection, schedule: Q01DX009 (ip), vehicle: saline with Tween-80.

As to `Cn1c(Cc2ccccc2)c(C(=O)/C=C/c2ccccc2)c(=O)n(C)c1=O`, the T/C by setting is: under setting [1], 103 % of control; under setting [2], 100 % of control; under setting [3], 99 % of control.

For `COC(=O)C(CSC(c1ccccc1)(c1ccccc1)c1ccccc1)NC(=O)C(CSCc1ccccc1)NC(=O)CCNC(=O)OCc1ccccc1` (stereo not given) ({Cbz-βAla}-Cys(Bn)-Cys(Trt)-OMe; configuration not given here), the T/C (dose: 4.0 mg/kg/injection, schedule: Q01DX009 (ip), vehicle: water) was 102 % of control; the T/C (dose: 8.0 mg/kg/injection, schedule: Q01DX009 (ip), vehicle: water) is 100 % of control; the T/C under setting [4] is 99 % of control; the T/C (dose: 16.0 mg/kg/injection, schedule: Q01DX009 (ip), vehicle: water) is 99 % of control; the T/C under setting [5] is 102 % of control; the T/C (dose: 32.0 mg/kg/injection, schedule: Q01DX009 (ip), vehicle: water) is 99 % of control. The T/C under setting [6] was 102 % of control; the T/C (dose: 64.0 mg/kg/injection, schedule: Q01DX009 (ip), vehicle: water) is 89 % of control; the T/C under setting [7] is 102 % of control; the T/C (dose: 128.0 mg/kg/injection, schedule: Q01DX009 (ip), vehicle: water) is 86 % of control; the T/C under setting [8] is 103 % of control.

Consider `CP(=O)(N/N=C\C(=O)O)c1ccccc1` (stereo not given), for which the T/C is 99 % of control (dose: 12.5 mg/kg/injection, schedule: Q01DX009 (ip), vehicle: other); 91 % of control (dose: 25.0 mg/kg/injection, schedule: Q01DX009 (ip), vehicle: other); 100 % of control (dose: 50.0 mg/kg/injection, schedule: Q01DX009 (ip), vehicle: other); 97 % of control (dose: 100.0 mg/kg/injection, schedule: Q01DX009 (ip), vehicle: other); 98 % of control (dose: 200.0 mg/kg/injection, schedule: Q01DX009 (ip), vehicle: other); 97 % of control (dose: 400.0 mg/kg/injection, schedule: Q01DX009 (ip), vehicle: other).

`Cc1cc(=O)c(C#N)c(C)o1`: the T/C by setting is: under setting [9], 98 % of control; under setting [10], 97 % of control; under setting [11], 90 % of control.

As for `C/C=C/C=C/C(=O)CCC1(C)OC(=O)C(C)=C1O` (stereo not given), the T/C reads like this: under setting [6], 96 % of control; under setting [7], 113 % of control; under setting [8], 93 % of control.

Take `O=C1SCCC1n1c(=O)c1=O` (stereo not given): the T/C reads like this: under setting [12], 100 % of control; under setting [1], 98 % of control; under setting [9], 94 % of control; under setting [2], 105 % of control; under setting [10], 99 % of control; under setting [3], 96 % of control. The T/C runs as follows: under setting [11], 90 % of control; (dose: 400.0 mg/kg/injection, schedule: Q01DX005 (ip), vehicle: saline with Tween-80) 99 % of control.

Consider `CN(C)/C=C(/N=C(C#N)C#N)C1OCCO1`, for which the T/C by setting is: (dose: 12.5 mg/kg/injection, schedule: Q01DX005 (ip), vehicle: saline with Tween-80) 100 % of control; under setting [12], 112 % of control; under setting [1], 117 % of control.

As to `CN(C)C(=Nc1ccc(NC(=O)c2ccc(C(=O)Nc3ccc(N=C(Nc4ccccc4)N(C)C)cc3)cc2)cc1)Nc1ccccc1`, the T/C is, setting by setting: under setting [13], 101 % of control; under setting [4], 101 % of control; under setting [5], 100 % of control.

For `Cc1ccc(S(=O)(=O)N2CCCN(S(=O)(=O)c3ccc(C)cc3)COC2)cc1`, the T/C was 102 % of control (dose: 60.0 mg/kg/injection, schedule: Q01DX005 (ip), vehicle: Klucel (hydroxypropylcellulose) (HPC)); 101 % of control (dose: 120.0 mg/kg/injection, schedule: Q01DX005 (ip), vehicle: Klucel (hydroxypropylcellulose) (HPC)); 102 % of control (dose: 240.0 mg/kg/injection, schedule: Q01DX005 (ip), vehicle: Klucel (hydroxypropylcellulose) (HPC)).

Turning to `Cc1ccc(S(=O)(=O)N/N=C/C(Br)=C(/Br)C(=O)O)cc1`, the T/C was 154 % of control and 171 % of control (dose: 25.0 mg/kg/injection, schedule: Q01DX009 (ip), vehicle: distilled water + Tween-80); 157 % of control and 166 % of control (dose: 50.0 mg/kg/injection, schedule: Q01DX009 (ip), vehicle: distilled water + Tween-80).

Take `CC(C)(CO)C(O)C(=O)NCCCO` (stereo not given): the T/C under setting [14] is 103 % of control, the T/C under setting [15] is 98 % of control and the T/C under setting [16] is 100 % of control.

Consider `COc1ccc(C(=O)Nc2c(Cl)cccc2Cl)cc1OC`, for which the T/C runs as follows: under setting [9], 94 % of control; under setting [10], 88 % of control.

For the compound `CO/N=C(\N)NC(=O)Cc1c(Cl)cccc1Cl`, the T/C is 94 % of control under setting [13]; 98 % of control under setting [4]; 100 % of control and 101 % of control under setting [5]; 103 % of control and 90 % of control under setting [6]; 100 % of control under setting [7].

On to `Nc1nc2c(C(=O)N3CCOCC3)nnn2c2ccccc12`, for which the T/C runs as follows: under setting [17], 100 % of control; under setting [18], 92 % of control; under setting [19], 96 % of control.

For the compound `CCC[CH2][Sn]([CH2]CCC)([O]C(=O)/C=C/c1ccccc1)[O]C(=O)/C=C/c1ccccc1`, the T/C by setting is: (dose: 1.56 mg/kg/injection, schedule: Q04DX003 (ip), vehicle: DMSO) 87 % of control; (dose: 3.12 mg/kg/injection, schedule: Q04DX003 (ip), vehicle: DMSO) 89 % of control; (dose: 6.25 mg/kg/injection, schedule: Q04DX003 (ip), vehicle: DMSO) 89 % of control; (dose: 12.5 mg/kg/injection, schedule: Q04DX003 (ip), vehicle: saline with Tween-80) 117 % of control.

As for `CCCOC(=O)CCCC1=NC2=CC=CC3=NC(C)=NC(=N1)N23`, the T/C was 107 % of control under setting [20], 104 % of control under setting [17] and 104 % of control under setting [18].

Regarding `CSCCC(NC(=O)C(Cc1ccccc1)NC(=O)OCc1ccccc1)C(=O)O` (stereo not drawn) (Cbz-Phe-Met-OH; configuration not given here), the T/C under setting [1] was 104 % of control, the T/C under setting [2] was 105 % of control and the T/C under setting [3] is 97 % of control.

On to `CCCCC/C(C)=C\CBr`, for which the T/C under setting [20] was 96 % of control, the T/C under setting [17] is 99 % of control and the T/C under setting [18] is 89 % of control.

Regarding `COC(=O)C1CC2c3ccccc3C1c1ccccc12` (stereo not given), the T/C runs as follows: under setting [9], 99 % of control; under setting [10], 99 % of control; under setting [11], 101 % of control.

On to `CC1CCC(O)C23OC4C(OC(C)(C)C4C12C)C3=O` (stereo not given) (tested in a mixture with another compound), for which the T/C was 96 % of control under setting [14], 89 % of control under setting [15] and 94 % of control under setting [16].

As for `CC(=O)Nc1c(-c2ccccc2)[nH]c2ccccc12`, the T/C (dose: 100.0 mg/kg/injection, schedule: Q01DX001 (ip), vehicle: saline with Tween-80) is 99 % of control.

Regarding `Cc1ccc(N2C(=O)N(c3ccc(C)cc3)C3(Sc4ccccc4N3C)C2=O)cc1` (stereo not given), the T/C reads like this: (dose: 25.0 mg/kg/injection, schedule: Q04DX002 (ip), vehicle: saline with Tween-80) 95 % of control; (dose: 50.0 mg/kg/injection, schedule: Q04DX002 (ip), vehicle: saline with Tween-80) 92 % of control; (dose: 100.0 mg/kg/injection, schedule: Q04DX002 (ip), vehicle: saline with Tween-80) 89 % of control.

Regarding `CSCCC(O)C(NC(=O)CCl)C(=O)O` (stereo not given), the T/C under setting [14] was 89 % of control and 96 % of control; the T/C under setting [15] was 98 % of control and 102 % of control; the T/C under setting [16] is 93 % of control and 95 % of control.

As to `CC(C)=C[Si](C)(C)C`, the T/C is 103 % of control under setting [17], 110 % of control under setting [18] and 103 % of control under setting [19].

On to `O=[N+]([O-])c1ccc([Se]CCO)c([N+](=O)[O-])c1`, for which the T/C (dose: 50.0 mg/kg/injection, schedule: Q01DX009 (ip), vehicle: Klucel (hydroxypropylcellulose) (HPC)) is 101 % of control and the T/C (dose: 100.0 mg/kg/injection, schedule: Q01DX009 (ip), vehicle: Klucel (hydroxypropylcellulose) (HPC)) is 99 % of control.

`CCc1c(CNc2ccc(Cl)c(Cl)c2)ccc2nc(N)nc(N)c12`: the T/C under setting [4] is 109 % of control.
